Data from ChEMBL document CHEMBL5338783, “Discovery of an Anti-TNF-α 9-mer Peptide from a T7 Phage Display Library for the Treatment of Inflammatory Bowel Disease” (J Med Chem, 2023).
Active and inactive are the calls of the source. The calls are words filed in the database; no cut-off is given here. Peptide text beside a SMILES is read from it.

Tests used:
[1] = tested on: RAW264.7; assay: Antiinflammatory activity in LPS-stimulated mouse RAW264.7 cells assessed as inhibition of p38 phosphorylation incubated for 3 hrs by Western blot analysis; type: functional, cell-based; conditions: dose 25-100 µM
[2] = tested on: Mus musculus; assay: Anti-colitis activity against DSS-induced acute colitis in C57BL/6 mouse model assessed as decrease in disease activity index at 0.5 to 1 mg/kg, ip daily for 7 days; type: functional, organism-based; conditions: dose 0.5-1 mg/kg, time 7.0 day
[3] = tested on: Mus musculus; assay: Antiinflammatory activity against DSS-induced acute colitis in C57BL/6 mouse model assessed as decrease in IkappaBalpha phosphorylation in colon tissue administered intraperitoneally daily for 7 days by Western blot analysis; type: functional, organism-based; conditions: dose 0.5-1 mg/kg, route ip, time 7.0 day
[4] = tested on: BMDM; assay: Antiinflammatory activity in mouse BMDM cells assessed as decrease in LPS-stimulated IL-6 mRNA level incubated for 3 hrs by RT-qPCR analysis; type: functional, cell-based; conditions: dose 25-100 µM
[5] = tested on: Mus musculus; assay: Antiinflammatory activity against DSS-induced acute colitis in C57BL/6 mouse model assessed as decrease in ERK1/2 phosphorylation in colon tissue administered intraperitoneally daily for 7 days by Western blot analysis; type: functional, organism-based; conditions: dose 0.5-1 mg/kg, route ip, time 7.0 day
[6] = tested on: RAW264.7; assay: Antiinflammatory activity in mouse RAW264.7 cells assessed as decrease in LPS-stimulated IL-1beta protein expression incubated for 3 hrs by flow cytometry; type: functional, cell-based; conditions: dose 25-100 µM
[7] = tested on: Mus musculus; assay: Anti-colitis activity against DSS-induced acute colitis in C57BL/6 mouse model assessed as reduction in colonic epithelial disruption at 0.5 to 1 mg/kg, ip daily for 11 days by H and E staining based analysis; type: functional, organism-based; conditions: dose 0.5-1 mg/kg, time 11.0 day
[8] = tested on: RAW264.7; assay: Antiinflammatory activity in mouse RAW264.7 cells assessed as decrease in LPS-stimulated IL-1beta mRNA level incubated for 3 hrs by RT-qPCR analysis; type: functional, cell-based; conditions: dose 25-100 µM
[9] = tested on: Mus musculus; assay: Anti-colitis activity against DSS-induced acute colitis in C57BL/6 mouse model assessed as […] in IL-1beta mRNA level at 0.5 to 1 mg/kg, ip daily for 7 days by RT-qPCR analysis; type: functional, organism-based; conditions: dose 0.5-1 mg/kg, time 7.0 day
[10] = tested on: BMDM; assay: Antiinflammatory activity in mouse BMDM cells assessed as decrease in LPS-stimulated IL-1beta mRNA level incubated for 3 hrs by RT-qPCR analysis; type: functional, cell-based; conditions: dose 25-100 µM
[11] = tested on: RAW264.7; assay: Antiinflammatory activity in mouse RAW264.7 cells assessed as decrease in LPS-stimulated IFN-gamma mRNA level at 25 to 100 uM incubated for 3 hrs by RT-qPCR analysis; type: functional, cell-based; conditions: dose 25-100 µM
[12] = tested on: RAW264.7; assay: Antiinflammatory activity in mouse RAW264.7 cells assessed as decrease in LPS-stimulated TNF-alpha mRNA level at 25 to 100 uM incubated for 3 hrs by RT-qPCR analysis; type: functional, cell-based; conditions: dose 25-100 µM
[13] = tested on: Mus musculus; assay: Anti-colitis activity against DSS-induced acute colitis in C57BL/6 mouse model assessed as decrease in disease activity index at 0.5 to 1 mg/kg, ip daily for 11 days; type: functional, organism-based; conditions: dose 0.5-1 mg/kg, time 11.0 day
[14] = tested on: L929; assay: Cytotoxicity against mouse L929 cells upto 1000 uM; type: toxicity, cell-based; conditions: l929, 1000 µM
[15] = target: T1, Tumor necrosis factor receptor superfamily member 1A (Homo sapiens) (UniProt P19438); assay: Inhibition of TNF-alpha (unknown origin) binding to TNFR1 by SPR analysis
T1 sequence (whole entry): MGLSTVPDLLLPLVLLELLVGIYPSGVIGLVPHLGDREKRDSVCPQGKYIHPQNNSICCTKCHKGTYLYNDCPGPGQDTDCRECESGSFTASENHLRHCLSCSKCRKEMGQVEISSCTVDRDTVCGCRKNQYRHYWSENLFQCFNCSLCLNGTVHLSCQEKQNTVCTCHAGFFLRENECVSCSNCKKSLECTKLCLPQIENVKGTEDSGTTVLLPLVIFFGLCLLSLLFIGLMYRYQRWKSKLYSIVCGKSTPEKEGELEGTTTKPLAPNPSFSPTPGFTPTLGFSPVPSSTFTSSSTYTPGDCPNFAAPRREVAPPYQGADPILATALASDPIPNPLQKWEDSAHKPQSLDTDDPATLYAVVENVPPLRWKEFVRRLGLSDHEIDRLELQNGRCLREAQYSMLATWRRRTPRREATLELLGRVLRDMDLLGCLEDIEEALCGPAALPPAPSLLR

[16] = tested on: Mus musculus; assay: Anti-colitis activity against DSS-induced acute colitis in C57BL/6 mouse model assessed as reduction in colon length at 0.5 to 1 mg/kg, ip daily for 7 days; type: functional, organism-based; conditions: dose 0.5-1 mg/kg, time 7.0 day
[17] = target: Tumor necrosis factor (Homo sapiens, UniProt P01375); assay: Binding affinity to TNF-alpha (unknown origin) assessed as dissociation constant by SPR analysis
Tumor necrosis factor, sequence (P01375 whole entry): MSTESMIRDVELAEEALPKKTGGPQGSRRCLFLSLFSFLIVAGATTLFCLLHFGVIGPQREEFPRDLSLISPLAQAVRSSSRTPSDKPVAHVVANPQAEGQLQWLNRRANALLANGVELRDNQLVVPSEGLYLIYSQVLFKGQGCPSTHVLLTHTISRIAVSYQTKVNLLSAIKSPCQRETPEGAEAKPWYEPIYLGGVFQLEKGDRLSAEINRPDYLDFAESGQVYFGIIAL

[18] = tested on: Mus musculus; assay: Anti-colitis activity against DSS-induced acute colitis in C57BL/6 mouse model assessed as reduction in granulocyte infiltration in colon at 0.5 to 1 mg/kg, ip daily for 11 days by H and E staining based analysis; type: functional, organism-based; conditions: dose 0.5-1 mg/kg, time 11.0 day
[19] = tested on: BMDM; assay: Antiinflammatory activity in LPS-stimulated mouse BMDM cells assessed as inhibition of MAPK signalling pathway incubated for 3 hrs by Western blot analysis; type: functional, cell-based; conditions: dose 25-100 µM
[20] = Toxicity in DSS-induced acute colitis in C57BL/6 mouse model assessed as animal survival at 0.5 to 1 mg/kg, ip daily for 11 days; type: organism-based; conditions: in vivo, 264 h, dose 0.5-1 mg/kg, time 11 day
[21] = tested on: Mus musculus; assay: Anti-colitis activity against DSS-induced acute colitis in C57BL/6 mouse model assessed as reversal of body weight loss at 0.5 to 1 mg/kg, ip daily for 11 days; type: functional, organism-based; conditions: dose 0.5-1 mg/kg, time 11.0 day
[22] = tested on: Mus musculus; assay: Antiinflammatory activity against DSS-induced acute colitis in C57BL/6 mouse model assessed as decrease in p65 phosphorylation in colon tissue administered intraperitoneally daily for 7 days by Western blot analysis; type: functional, organism-based; conditions: dose 0.5-1 mg/kg, route ip, time 7.0 day
[23] = target: T2, Tumor necrosis factor receptor superfamily member 1B (Homo sapiens) (UniProt P20333); assay: Binding affinity to TNFR2 (unknown origin) at 488.3 to 500 uM incubated for 10 mins by MST assay; conditions: dose 488.3-500 µM
T2 sequence (whole entry): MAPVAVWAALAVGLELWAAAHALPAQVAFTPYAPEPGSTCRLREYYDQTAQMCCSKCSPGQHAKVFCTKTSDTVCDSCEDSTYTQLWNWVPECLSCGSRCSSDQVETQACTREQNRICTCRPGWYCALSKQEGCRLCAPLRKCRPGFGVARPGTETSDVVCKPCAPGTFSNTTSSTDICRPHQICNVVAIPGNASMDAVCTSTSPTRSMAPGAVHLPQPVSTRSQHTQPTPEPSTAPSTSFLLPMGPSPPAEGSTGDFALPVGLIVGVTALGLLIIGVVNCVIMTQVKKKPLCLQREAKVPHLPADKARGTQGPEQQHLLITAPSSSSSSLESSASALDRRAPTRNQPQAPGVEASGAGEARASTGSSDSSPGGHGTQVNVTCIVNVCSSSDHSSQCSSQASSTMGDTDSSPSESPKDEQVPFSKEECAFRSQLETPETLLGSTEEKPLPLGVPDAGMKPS

[24] = tested on: BMDM; assay: Antiinflammatory activity in mouse BMDM cells assessed as decrease in LPS-stimulated IFN-alpha mRNA level incubated for 3 hrs by RT-qPCR analysis; type: functional, cell-based; conditions: dose 25-100 µM

Question: For `C[C@H](N)C(=O)N[C@@H](CS)C(=O)N[C@@H](Cc1cnc[nH]1)C(=O)N[C@@H](C)C(=O)N[C@@H](Cc1c[nH]c2ccccc12)C(=O)N[C@@H](C)C(=O)N1CCC[C@H]1C(=O)N[C@H](C(=O)N[C@@H](CCCNC(=N)N)C(=O)O)[C@@H](C)O` (H-ACHAWAPTR-OH), which Activity [1] is on record?
Answer: The Activity was “Dose-Dependent Effect”.

Question: What about the Activity [2] of the same molecule?
Answer: The Activity was “Active”.

Question: And the Activity [3]?
Answer: The Activity was “Dose-Dependent Effect”.

Question: What about the Activity [4] of the same molecule?
Answer: Its Activity is “Dose-Dependent Effect”.

Question: What about the Activity [5] of the same molecule?
Answer: The Activity was “Dose-Dependent Effect”.

Question: And the Activity [6]?
Answer: The Activity was “Dose-Dependent Effect”.

Question: What about the Activity [7] of the same molecule?
Answer: The Activity was “Active”.

Question: What about the Activity [8] of the same molecule?
Answer: The Activity was “Active”.

Question: And the Activity [9]?
Answer: The Activity was “Active”.

Question: What about the Activity [10] of the same molecule?
Answer: The Activity was “Dose-Dependent Effect”.

Question: And the Activity [11]?
Answer: The Activity was “Dose-Dependent Effect”.

Question: What about the Activity [12] of the same molecule?
Answer: The Activity was “Dose-Dependent Effect”.

Question: And the Activity [13]?
Answer: Its Activity is “Active”.

Question: And the Activity [14]?
Answer: The Activity was “Non-Toxic”.

Question: And the inhibition [15]?
Answer: The inhibition was “Active”.

Question: And the Activity [16]?
Answer: The Activity was “Active”.

Question: What about the Kd [17] of the same molecule?
Answer: The Kd was 6 µM.

Question: What about the Activity [18] of the same molecule?
Answer: Its Activity is “Active”.

Question: And the Activity [19]?
Answer: Its Activity is “Dose-Dependent Effect”.

Question: What about the Activity [20] of the same molecule?
Answer: The Activity was “Non-Toxic”.

Question: What about the Activity [21] of the same molecule?
Answer: The Activity was “Active”.

Question: What about the Activity [22] of the same molecule?
Answer: The Activity was “Dose-Dependent Effect”.

Question: What about the Activity [23] of the same molecule?
Answer: The Activity was “inactive”.

Question: What about the Activity [24] of the same molecule?
Answer: Its Activity is “Dose-Dependent Effect”.
